Reference: ChEMBL document CHEMBL4052616, “Isoniazid derivatives and their anti-tubercular activity” (Eur J Med Chem, 2017)
In brackets after ≈: the same amount, converted by molar mass.

Tested on: Mycobacterium tuberculosis variant bovis
Assay: Antimycobacterial activity against Mycobacterium bovis 8 by serial dilution method
Format: functional

NNC(=O)c1ccncc1 [ISONIAZID]
MIC: 0.015 to 0.06 µg/mL (≈ 0.109 to 0.438 µM)
